What was measured:
[1] = dissolution of the 11β-aminoester salts in aqueous acid (Table 5 and Examples 101, 225-229); format: physicochemical
Procedure: (§1) A solution of the above free base (492 mg; 1 mmole) in ethanol (10 ml) was treated with a solution (10 ml) of M/10 citric acid in ethanol water (9:1) and the mixture evaporated in vacuo at low temperature to afford a froth.
(§2) Table 5 summarises the properties and preparation of salts of the invention by one of the following methods:
(§3) A. The 11β-aminoester (1 part) was added to a solution of the acid (1 molar part) in water and the mixture stirred or shaken until a clear solution was obtained. The solution was made up with water to the weight indicated, filtered through a membrane and the pH determined.
(§4) B. The 11β-aminoester (1 part) was added to a solution of the acid (1 molar part) in water and the mixture stirred or shaken. As free base remained undissolved, further acid was added and the mixture agitated again. The solution was made up with water to the weight indicated and any material which then remained undissolved was collected in a weighed funnel and the weight of free base dissolved calculated and the pH of the solution measured.
(§5) C. A mixture of the 11β-aminoester (1 part), a 0.1 M solution of the acid (1 molar part) and ethanol was evaporated in vacuo and dried to constant weight. The residue was dissolved in a little water and any material which then remained undissolved collected in a weighed funnel and the weight of free base dissolved calculated. The solution was made up with water to the weight indicated and its pH measured.
(§6) D. The 11β-aminoester (1 part) was added to a solution of the acid (1 molar part) in water and the mixture stirred or shaken. The solution was made up with water to the weight indicated. The material remaining undissolved was collected in a weighed funnel and the weight of free base dissolved calculated and the pH of the solution measured.
(§7) E. As in method C except that further acid was added to the residue after addition of the small amount of water.
The solid citric acid used was as its monohydrate.
(§8) Sodium iodide (0.250 g) and diethylamine (0.5 ml) were added to a solution of 11β-chloroacetoxy-2β-ethoxy-3α-hydroxy-D-homo-5α-pregnan-20-one (0.250 g) in acetone (10 ml) and the mixture was left at room temperature for 3 days during which time a white solid precipated. Water was added and the yellow solution was concentrated in vacuo whereupon crystallisation occurred. The needles were filtered off and washed well with acetone/water yielding the title compound (0.201 g), m.p. 160°-73°, [α]D +60.8°. The above base (0.101 g) was stirred with citric acid monohydrate (0.042 g) in water (9.5 ml) for 21 hours. The solution was made up to 10.1 g by weight. The solid remaining out of solution was filtered off, dried and weighed. The solution was passed through a millipore filter giving an aqueous solution of the title compound, concentration 9.75 mg/ml, pH 3.66.
The above base (0.096 g) was stirred in a solution of citric acid monohydrate (0.038 g) in water (8.5 ml) for 20 hours. A large proportion of the steroid remained out of solution. More citric acid (0.038 g) was added and the mixture stirred for a further 6 hours. The solution was made up to 9.6 g by weight and the solid remaining out of solution was filtered off, dried and weighed. The solution was passed through a millipore filter giving an aqueous solution of the title compound, concentration 9.5 mg/ml, pH 2.85.
To a solution of citric acid monohydrate (52.5 mg) in water (2 ml) was added the above free base (115 mg). More water (8 ml) was added and the mixture was stirred for 72 hrs. A small amount of steroid remained out of solution and more citric acid (52.5 mg) was added. Within 5 mins. a clear solution was obtained which was made up to 11.5 g with water and filtered through a millipore filter yielding an aqueous solution of the title citrate, concentration 10 mg/ml, pH 3.0.
The above free base (112 mg) was added to a solution of citric acid monohydrate (52.5 mg) in water (2 ml). More water (8 ml) was added and the mixture was swirled from time to time. […]

pH of the salt solutions = format: physicochemical
Procedure: as §1, §2, §3, §4, §5, §6, §7
11β-N,N-Diethylaminoacetoxy-2β-ethoxy-3α-hydroxy-5α-pregnan-20-one (1.45 g) was agitated with citric acid monohydrate (621 mg) in 0.9% w/v sodium chloride solution (steriflex^(R)) (130 ml.) at 20° for 16.5 hours. The resulting solution was stirred at 21° and N/5 sodium hydroxide solution in steriflex^(R) (10.5 ml) was added dropwise during 30 minutes, raising the pH from 3.63 to 4.52. The solution was diluted to 162.5 g so that the concentration of steroid was 9 mg/ml. The solution of the citrate was filtered through a membrane and finally filtered into 8 sterile ampoules.
11β-(N-Butyl-N-ethylaminoacetoxy)-3α-hydroxy-5α-pregnan-20-one (1.80 g) was agitated with citric acid monohydrate (793 mg) in 0.9% w/v sodium chloride solution (steriflex^(R)) (160 ml) at 20° for 19.5 hours. The resulting solution was slightly cloudy. This solution was stirred at 21° and N/5 sodium hydroxide solution in steriflex^(R) (5.8 ml) was added dropwise during 15 minutes, raising the pH from 3.62 to 4.00. The solution was diluted to 201.2 g so that the concentration of steroid was 9 mg/ml. The cloudiness was removed by filtration through a membrane and the clear solution of the citrate was filtered into 8 sterile ampoules.
as §8, with “3.66. […]” for “3.66.”

[2] = method A: clear solution, 1 molar part acid, made up with water to WT. of solution 10 g, except Ex. 121 and 150: 12, 123: 12.3, 124: 7.5, 129: 10.3, 135 and 139: 8.95, 164: 10.35, 170: 10.4, 181: 10.04, 187: 9.5, 210: 10.2, 221: 15 g
[3] = aqueous solution of the salt, Table 5
[4] = method C: ethanol evaporated, residue in water, undissolved material weighed, WT. of solution Ex. 118: 10, 120: 10.4, 148: 9.54, 152: 5.6, 154: 9.1, 155: 8.77, 156: 9.06, 157: 9.5, 158: 9.38, 159: 9.17, 179: 9.65, 180: 11.7, 182: 4.9, 202: 12.05, 213: 12, 214: 11.5, 215: 11.1, 216: 11.6, 217: 12.1 g
[5] = method B: further acid added, undissolved material weighed, WT. of solution 10 g, except Ex. 130 and 141: 9.2, 142: 9.23, 143, 144, 189 and 199: 9.8, 149: 10.6, 153: 7.9, 162 and 188: 9.5, 163: 68, 166: 10.4, 168: 10.7, 169: 10.9, 183: 8.05, 184 and 201: 9.83, 185: 7.1, 186: 9.3, 192: 10.07, 193: 6.4, 195: 6.8, 196: 7, 197: 7.2, 200: 10.1, 206: 15 g
[6] = method D: 1 molar part acid, undissolved material weighed, WT. of solution 10 g, except Ex. 136: 8.95, 140: 9.52, 165 and 167: 10.1, 190 and 198: 9.8, 191: 8.9, 194: 6.6, 204: 10.09, 219: 10.6 g

## CCN(CC)CC(=O)OC1CC2(C)C(C(=O)COC)CCC2C2CCC3CC(O)CCC3(C)C12 (stereo not drawn) [Example 172]
[1]; [2]
  Dissolved aminoester: 100 mg
pH of the salt solutions; [3]
  pH: 3.2

## CCCN(CCC)CC(=O)O[C@H]1C[C@]2(C)[C@@H](C(C)=O)CC[C@H]2[C@@H]2CC[C@H]3C[C@H](O)CC[C@]3(C)[C@H]21 [Example 213]
[1]; [4]
  Dissolved aminoester: 119 mg
pH of the salt solutions; [3]
  pH: 3.8

## CCCN(CCC)CC(=O)O[C@H]1C[C@]2(C)[C@@H](C(=O)CO)CC[C@H]2[C@@H]2CC[C@H]3C[C@H](O)CC[C@]3(C)[C@H]21 [Example 210]
[1]; [2]
  Dissolved aminoester: 100 mg
pH of the salt solutions; [3]
  pH: 3.7

## CC(=O)[C@H]1CC[C@H]2[C@@H]3CC[C@H]4C[C@H](O)CC[C@]4(C)[C@H]3[C@@H](OC(=O)CCCN3CCC(C)CC3)C[C@]12C [Example 181]
[1]; [2]
  Dissolved aminoester: 101 mg
pH of the salt solutions; [3]
  pH: 3.72

## CC(=O)[C@H]1CC[C@H]2[C@@H]3CC[C@H]4C[C@H](O)CC[C@]4(C)[C@H]3[C@@H](OC(=O)CN3CCCCCC3)C[C@]12C [Example 159]
[1]; [4]
  Dissolved aminoester: 91.7 mg
pH of the salt solutions; [3]
  pH: 3.55

## CCCCOC1CC2(C)C(CCC3C4CCC(C(C)=O)C4(C)CC(OC(=O)CN(C)CCCC)C32)CC1O (stereo not drawn) [Example 168]
[1]; [5]
  Dissolved aminoester: 70.5 mg
pH of the salt solutions; [3]
  pH: 2.4

## CCOC1CC2(C)C(CCC3C4CCC(C(C)=O)C4(C)CC(OC(=O)CN4CCC(C)CC4)C32)CC1O (stereo not drawn) [Example 164]
[1]; [2]
  Dissolved aminoester: 103.5 mg
pH of the salt solutions; [3]
  pH: 3.72

## CCN(CC(=O)O[C@H]1C[C@]2(C)[C@@H](C(C)=O)CC[C@H]2[C@@H]2CC[C@H]3C[C@H](O)CC[C@]3(C)[C@H]21)C(C)C [Example 194]
[1]; [6]
  Dissolved aminoester: 57 mg
pH of the salt solutions; [3]
  pH: 3.56

## C=CCN(CC=C)CC(=O)O[C@H]1C[C@]2(C)[C@@H](C(C)=O)CC[C@H]2[C@@H]2CC[C@H]3C[C@H](O)CC[C@]3(C)[C@H]21 [Example 118]
[1]; [4]
  Dissolved aminoester: 38 mg
pH of the salt solutions; [3]
  pH: 2.55

## CCCN(CCC)CC(=O)O[C@H]1C[C@]2(C)[C@@H](C(C)=O)CC[C@H]2[C@@H]2CC[C@H]3C[C@H](O)CC[C@]3(C)[C@H]21 [Example 217]
[1]; [4]
  Dissolved aminoester: 76 mg
pH of the salt solutions; [3]
  pH: 3.53

## CC(=O)[C@H]1CC[C@H]2[C@@H]3CC[C@H]4C[C@H](O)CC[C@]4(C)[C@H]3[C@@H](OC(=O)CN(C)C(C)C)C[C@]12C [Example 183]
[1]; [5]
  Dissolved aminoester: 57.5 mg
pH of the salt solutions; [3]
  pH: 2.69

## CCN(CC(=O)O[C@H]1C[C@]2(C)[C@@H](C(C)=O)CC[C@H]2[C@@H]2CC[C@H]3C[C@H](O)CC[C@]3(C)[C@H]21)CC(C)C [Example 195]
[1]; [5]
  Dissolved aminoester: 59 mg
pH of the salt solutions; [3]
  pH: 2.98

## CC(=O)[C@H]1CC[C@H]2[C@@H]3CC[C@H]4C[C@H](O)CC[C@]4(C)[C@H]3[C@@H](OC(=O)CNC(C)CCC(C)C)C[C@]12C (stereo partly drawn) [Example 143]
[1]; [5]
  Dissolved aminoester: 86 mg
pH of the salt solutions; [3]
  pH: 2.85

## CC(=O)[C@H]1CC[C@H]2[C@@H]3CC[C@H]4C[C@H](O)CC[C@]4(C)[C@H]3[C@@H](OC(=O)CNC3CC3)C[C@]12C [Example 145]
[1]; [6]
  Dissolved aminoester: 93 mg
pH of the salt solutions; [3]
  pH: 2.93

## CCCO[C@H]1C[C@@]2(C)[C@@H](CC[C@@H]3[C@@H]2[C@@H](OC(=O)CN(CC)CC)C[C@]2(C)[C@@H](C(C)=O)CC[C@@H]32)C[C@@H]1O [Example 122]
[1]; method A, 0.9% w/v saline in place of water, WT. of solution Ex. 122: 37.5 g, 222: 50 g
  Dissolved aminoester: 375 mg
pH of the salt solutions; solution of the salt in saline, before any adjustment
  pH: 3.5

## CCN(CC)CC(=O)O[C@H]1C[C@]2(C)[C@@H](C(C)=O)CC[C@H]2[C@@H]2CC[C@H]3C[C@H](O)C=C[C@]3(C)[C@H]21 [Example 211]
[1]; [6]
  Dissolved aminoester: 94 mg
pH of the salt solutions; [3]
  pH: 3.2

## CCCC(C)N(C)CC(=O)O[C@H]1C[C@]2(C)[C@@H](C(C)=O)CC[C@H]2[C@@H]2CC[C@H]3C[C@H](O)CC[C@]3(C)[C@H]21 (stereo partly drawn) [Example 187]
[1]; [2]
  Dissolved aminoester: 95 mg
pH of the salt solutions; [3]
  pH: 3.63

## CCCCNCC(=O)O[C@H]1C[C@]2(C)[C@@H](C(C)=O)CC[C@H]2[C@@H]2CC[C@H]3C[C@H](O)CC[C@]3(C)[C@H]21 [Example 136]
[1]; [6]
  Dissolved aminoester: 83.5 mg
pH of the salt solutions; [3]
  pH: 3.60

Source: US4192871A, “Chemical compounds” (Glaxo Laboratories Limited, priority 1976, dated 1980)
